This is an account of results in US20250019385A1, “SPIROCYCLIC ANNULATED 2-AMINO-3-CYANO THIOPHENES AND DERIVATIVES FOR THE TREATMENT OF CANCER” (Boehringer Ingelheim International GmbH, priority 2023, published 2025).

Converted amounts (≈) assume the structure as drawn. Like-named read-outs stand apart in the source and are kept apart here.

By IC50 is commonly meant the concentration that gives 50% inhibition. A higher IC50 goes with lower potency. Broadly, the solubility is the dissolved amount per volume that the medium holds.

Series [1] concerns the target KRAS (G12D)::SOS1 protein-protein interaction (Homo sapiens (Human), UniProt P01116, G12D). As to the kind of experiment: KRAS::SOS1 AlphaScreen binding assay (KRAS G12D). The settings on record: GDP. From the text:
This assay can be used to examine the potency with which compounds according to the invention binding to (mutated) KRAS inhibit the protein-protein interaction between SOS1 and (mutated) KRAS e.g. KRAS G12C, KRAS G12D. […] Low IC50 values in this assay setting are indicative of strong inhibition of protein-protein interaction between SOS1 and KRAS:
These assays measure the inhibitory effect of compounds on KRAS mutant protein-protein interactions using the Alpha Screen technology by Perkin Elmer.
The following (mutant) enzyme forms of KRAS and interacting proteins are used in these assays at the given concentrations:
KRAS (G12D) 1-169, N-terminal 6His-tag, C-terminal avi-tag (Xtal BioStructures, Inc.); final assay concentration 10 nM and SOS1 564-1049, N-terminal 229 GST-tag, TEV cleavage site (Viva Biotech Ltd); final assay concentration 5 nM;
Test compounds dissolved in DMSO are dispensed onto assay plates (Proxiplate 384 PLUS, white, PerkinElmer; 6008289) using an Access Labcyte Workstation with the Labcyte Echo 55x. For the chosen highest assay concentration of 100 μM, 150 nL of compound solution are transferred from a 10 mM DMSO compound stock solution. A series of eleven fivefold dilutions per compound are transferred to the assay plate, compound dilutions are tested in duplicates. DMSO are added as backfill to a total volume of 150 nL.
The assays run on a fully automated robotic system in a darkened room below 100 Lux. To 150 nl of compound dilution 10 μl of a mix including KRAS mutant protein, SOS1 (final assay concentrations see above) and GDP nucleotide (Sigma G7127; final assay concentration 10 μM) in assay buffer (1×PBS, 0.1% BSA, 0.05% Tween 20) are added into columns 1-24.
After 30 minutes incubation time 5 μl of Alpha Screen bead mix in assay buffer are added into columns 1-23. Bead mix consists of AlphaLISA Glutathione Acceptor Beads (PerkinElmer, Cat No AL109) and AlphaScreen Streptavidin Donor Beads (PerkinElmer Cat No 6760002) in assay buffer at a final assay concentration of 10 μg/mL each.
Plates are kept at room temperature in a darkened incubator. After an additional 60 minutes incubation time the signal is measured in a PerkinElmer Envision HTS Multilabel Reader using the AlphaScreen specs from PerkinElmer.
Each plate contains up to 16 wells of a negative control depending on the dilution procedure (platewise or serial) (DMSO instead of test compound; with KRAS mutant::SOS1 GOP mix and bead mix; column 23) and 16 wells of a positive control (DMSO instead of test compound; with KRAS mutant::SOS1 GOP mix w/o bead mix; column 24).
As internal control known inhibitors of KRAS mutant::SOS1 interaction can be measured on each compound plate.
IC50 values are calculated and analyzed with Boehringer Ingelheim's MEGALAB C50 application using a 4 parametric logistic model.
Tables of example compounds disclosed herein contain IC50 values determined using the above assays (see Table 43).
(Alpha assays give light when donor and acceptor beads are brought close together.)

Series [2] concerns Ba/F3 cells KRAS G12D. The series can be described thus: Ba/F3 proliferation assay (KRAS G12D). The series is classed as cell-based. The settings on record: Mus musculus, BaF3, 72 h, AlamarBlue viability. On the procedure:
(§1) Ba/F3 cells are ordered from DSMZ (ACC300, Lot17) and grown in RPMI-1640 (ATCC 30-2001)+10% FCS+10 ng/mL IL-3 at 37° C. in 5% […] atmosphere. Plasmids containing KRASG12 mutants (i.e. […], G12C, G12V) are obtained from GeneScript. To generate KRASG12-dependent Ba/F3 models, Ba/F3 cells are transduced with retroviruses containing vectors that harbor KRASG12 isoforms. Platinum-E cells (Cell Biolabs) are used for retrovirus packaging. Retrovirus is added to Ba/F3 cells. To ensure infection, 4 μg/mL polybrene is added and cells are spinfected. Infection efficiency is confirmed by measuring GFP-positive cells using a cell analyzer. Cells with an infection efficiency of 10% to 20% are further cultivated and puromycin selection with 1 μg/mL is initiated. As a control, parental Ba/F3 cells are used to show selection status. Selection is considered successful when parental Ba/F3 cells cultures died. To evaluate the transforming potential of KRASG12 mutations, the growth medium is no longer supplemented with IL-3. Ba/F3 cells harboring the empty vector are used as a control. Approximately ten days before conducting the experiments, puromycin is left out.
(§2) For proliferation assays, Ba/F3 cells are seeded into 384-well plates at 1.5×1 (M cells/60 μL in growth media (RPMI-1640+10% FCS). Compounds (10 mM stock in DMSO) are added at logarithmic dose series using the ECHO acoustic liquid handler system (Beckman Coulter), normalizing for added DMSO and including DMSO controls. All compound treatments are performed in technical duplicates. For the TO time point measurement, untreated cells are analyzed at the time of compound addition. Treated cells are incubated for 72 h at 37° C. with 5% CO2 and cell viability is measured in the PerkinElmer Envision Multimode Reader using AlamarBlue™ (ThermoFisher) viability stain. Viability (stated as percent of control) is defined as relative fluorescence units RFU of each well divided by the RFU of cells in DMSO controls. IC50 values are determined from viability measurements by non-linear regression using a four-parameter model.

In series [3] the test system is Ba/F3 cells KRAS G12C. As to the kind of experiment: Ba/F3 proliferation assay (KRAS G12C). The series is classed as cell-based. Particulars: Mus musculus, BaF3, 72 h, AlamarBlue viability. As to the method:
as §1, §2
For orientation: Alamar Blue is a resazurin reagent that responds to reducing activity.

Series [4] concerns Ba/F3 cells KRAS G12V. The series can be described thus: Ba/F3 proliferation assay (KRAS G12V). The class given is cell-based. The settings on record: Mus musculus, BaF3, 72 h, AlamarBlue viability. On the procedure:
as §1, §2

Series [5] in a line: Metabolic (microsomal) stability assay, human liver microsomes (HLM). The series is classed as in vitro ADME. Particulars: 1 μM test compound, predicted clearance as percent of liver blood flow. As to the method: The metabolic degradation of the test compound is assayed at 37° C. with pooled liver microsomes (mouse (MLM), rat (RLM) or human (HLM)). The final incubation volume of 48 μL per time point contains TRIS buffer (pH 7.5; 0.1 M), magnesium chloride (6.5 mM), microsomal protein (0.5 mg/mL for mouse/rat, 1 mg/mL for human specimens) and the test compound at a final concentration of 1 μM. Following a short preincubation period at 37° C., the reactions are initiated by addition of 12 μL beta-nicotinamide adenine dinucleotide phosphate, reduced form (NADPH, 10 mM) and terminated by transferring an aliquot into solvent after different time points (0, 5, 15, 30, 60 min). Additionally, the NADPH-independent degradation is monitored in incubations without NADPH, terminated at the last time point by addition of acetonitrile. The quenched incubations are pelleted by centrifugation (4,000 rpm, 15 min). An aliquot of the supernatant is assayed by LC-MS/MS to quantify the concentration of parent compound in the individual samples.
In vitro intrinsic clearance (CLint,in vitro) is calculated from the time course of the disappearance of the test drug during the microsomal incubation. Each plot is fitted to the first-order elimination rate constant as C(t)=C0*exp(−ke*t), where C(t) and C0 are the concentration of unchanged test drug at incubation time t and that at preincubation and ke is the disappearance rate constant of the unchanged drug. Subsequently, CLint, in vitro (μL min^−1·amount protein) values are converted to predicted CLint,in vivo (mL min^−1·kg^−1) from incubation parameters according to the equation CLint, in vivo=CLint, in vitro×(incubation volume (mL)/amount protein (mg))×(amount protein (mg)/g liver tissue)×(liver weight/body wt.).
For better across species comparison the predicted clearance is expressed as percent of the liver blood flow [% QH] (mL min^−1·kg^−1) in the individual species. In general, high stability (corresponding to low % QH) of the compounds across species is desired.

Series [6] in a line: Solubility measurement (DMSO solution precipitation method). The class given is physicochemical. Particulars: aqueous buffer, kinetic from dmso stock. As to the method:
A 10 mM DMSO stock solution of a test compound is used to determine its aq. solubility. The DMSO solution is diluted with an aq. medium (McIlvaine buffer with pH=4.5 or 6.8) to a final concentration of 250 μM. After 24 h of shaking at ambient temperature a potentially formed precipitate is removed by filtration. The concentration of the test compound in the filtrate is determined by LC-UV methods by calibrating the signal to the signal of a reference solution with complete dissolution of the test compound in acetonitrile/water (1:1) with known concentration.

Where [7] appears, read: McIlvaine buffer pH 4.5, 24 h, read-out: solubility pH 4.5.
Setting [8] is: McIlvaine buffer pH 6.8, 24 h, read-out: solubility pH 6.8.

KRAS (G12D)::SOS1 protein-protein interaction, sequence (P01116 other isoform, or with tags, fused parts or gaps G12D): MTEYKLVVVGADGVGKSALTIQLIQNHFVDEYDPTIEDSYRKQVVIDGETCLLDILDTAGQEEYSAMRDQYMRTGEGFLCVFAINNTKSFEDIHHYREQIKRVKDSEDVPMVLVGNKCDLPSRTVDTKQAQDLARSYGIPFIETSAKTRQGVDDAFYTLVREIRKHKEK

Consider `CO[C@H]1CCN(C)[C@@H]1[C@H](C)Oc1nc(-c2onc3c2CCC[C@@]32CCCc3sc(N)c(C#N)c32)nc2c1n(C)c(=O)n2[C@H]1CO[C@@H](C)C1` [I-48], for which the IC50 in series [1] came out at 2 nM; in series [2], 3 nM; in series [3], 2 nM; in series [4], 1 nM. In series [5], the “HLM QH” value is listed as 63%. For the same molecule, the solubility at 24 h is over 148 µg/mL in series [6] (setting [7]) and 53 µg/mL (≈ 78.5 µM) in series [6] (setting [8]).
For `CO[C@@H]1C[C@@H]([C@H](C)Oc2nc(-c3onc4c3CCC[C@@]43CCCc4sc(N)c(C#N)c43)nc3c2n(C)c(=O)n3[C@H]2CO[C@@H](C)C2)N(C)C1` [I-49], the “HLM QH” value in series [5] is on record as 35%. Also, the solubility at 24 h was over 145 µg/mL in series [6] (setting [7]) and 56 µg/mL (≈ 83 µM) in series [6] (setting [8]).
In the case of `C[C@@H]1COC[C@H](n2c(=O)n(C)c3c(O[C@@H](C)[C@@H]4CC[C@H](C)N4C)nc(-c4onc5c4CCC[C@@]54CCCc5sc(N)c(C#N)c54)nc32)C1` [I-53], the IC50 in series [1] worked out at 1 nM; in series [2], 19 nM; in series [3], 6 nM; in series [4] it was 2 nM. Moreover, in series [5], the “HLM QH” value is 45%. In addition, the solubility at 24 h is over 153 µg/mL in series [6] (setting [7]) and 19 µg/mL (≈ 28.2 µM) in series [6] (setting [8]).
